{"source": "patent US8470964B2", "about": "“Peptides derived from NCAM (FGLs)” (Enkam Pharmaceuticals A/S, priority 2007, dated 2013)", "key": {"[1]": {"tested_on": "scopolamine induced social amnesia model in adult rats", "assay": "Scopolamine induced social amnesia model (SRT)", "assay_type": "in vivo, rat", "settings": "8 mg/kg s.c. twice, 19 hours interval", "procedure": "FIG. 7. Effects of subcutaneous administration of FGLL FGLs, and VEB1 (2 administrations with a 19 hours interval, at 8 mg/kg) on the scopolamine induced social amnesia as evaluated in the Social Recognition Test (SRT). The rats were tested with the initial trial of SRT performed 5 h after the last administration of peptide/vehicle and 30 minutes after scopolamine (0.01 mg/kg s.c.) administration. The juvenile rat was presented twice with an inter-trial interval of 15 minutes.\nA—Recognition ratios (RR) of rats treated with scopolamine and vehicle (Veh) or scopolamine and one of the three peptides as detailed above. Results are shown as Mean and SEM of recognition ratio (RR). […] Comparisons of RR values to a hypothetical value 0.50 were carried out using one-sample t-test. In each experimental group data were obtained from 10 rats.\nB—Cumulative investigation time (T1, in seconds) during the first trial of the SRT of rats treated with scopolamine and vehicle (Veh) or scopolamine and one of the three peptides as detailed above. Results are shown as Mean and SEM of T1. Comparison between groups were carried out by ANOVA followed by Dunnett Multiple Comparison Test. In each experimental group data were obtained from 10 rats.\nFGLs was tested for efficacy in the scopolamine induced social amnesia model in adult rats (Van Kampen et al., 2004). […]"}, "[2]": {"tested_on": "adult male Wistar rats", "assay": "Morris Water Maze spatial learning", "assay_type": "in vivo, rat", "settings": "2.5 mg/kg s.c. as a single dose 5, 3 and 1 day prior to training; versus vehicle", "procedure": "FIG. 6. Effects of FGLs on spatial learning in the Morris Water Maze. Rats received FGLs or vehicle subcutaneously as a single dose of 2.5 mg/kg 5, 3 and 1 day prior to first test (trials 1-4 in above graph). The second test (trials 5-8 in above graph) took place the day after the first test. The results were analysed using analysis of variance (ANOVA) and Student's t-test. Data are mean escape latency(s) (±SEM) to find the platform over the 2 training days (t1-t4). *p<0.05, when compared with the Vehicle/Control group at the same time point.\nThe aim of this study was to investigate whether the subcutaneous administration of FGLs modulates spatial learning in adult male Wistar rats, using the Morris Water Maze as test system.\nIn the MWM test, rats are evaluated in the task to learn and remember the location of an escape platform hidden just under the water surface. In this study the test set-up was optimised for measuring learning. Rats received FGLs 2.5 mg/kg or vehicle subcutaneously as a single dose 5, 3 and 1 day prior the start of the training in the MWM."}, "[3]": {"tested_on": "intact adult rats", "assay": "Social Recognition Test (SRT), short-term social memory, subcutaneous administration", "assay_type": "in vivo, rat", "procedure": "(§1) FIG. 3. Effects of a single administration of vehicle or of FGLs on short-term social memory as evaluated in the Social Recognition Test (SRT). FGLs (8.0 mg/kg) or vehicle (sterile water, 4.0 ml/kg) was administered s.c. and the rats were tested twice with the initial trial of SRT performed 1 h and 73 h after administration. The juvenile rat was presented twice with an inter-trial interval of 2 hours. In each experimental group data were obtained from 9 to 11 rats. Results are shown as Mean and SEM of recognition ratio (RR). […] Comparisons of RR values to a hypothetical value 0.50 were carried using one-sample t-test. **P<0.01.\nas §1, with “4.” for “3.”, “(1.0, 2.0, 4.0 and 8.0” for “(8.0”, “24” for “73”\nFIG. 5. Effects of subcutaneous administration of FGLs, FGLL and VEB1 (2 administrations at the stated doses) on short-term social memory as evaluated in the Social Recognition Test (SRT). Results are shown as Mean and SEM of recognition ratio (RR). […] Comparisons of RR values to a hypothetical value 0.50 were carried using one-sample t-test.\nThe activity of FGLs, administered subcutaneously, in enhancing social memory in intact adult rats was examined in three studies. In both studies the test system was the Social Recognition Test (SRT), which is a reliable test for the evaluation of compounds active on short-term memory (Dantzer et al., 1987). In our studies we used a protocol of SRT were a juvenile rat was presented to the test rat twice, with an inter-trial interval (ITI) of 2 hours between the two tests. […] In the first study the rats received a single subcutaneous dose (8.0 mg/kg) of FGLs and were tested 1 hour and 73 hours after administration.\nIn the second study the rats received a single subcutaneous dose of 1.0, 2.0, 4.0 or 8.0 mg/kg of FGLs and were tested 1 hour and 24 hours after administration.\nIn the third study the dose response effects (0.25, 0.80, 2.50 and 8.0 mg/kg) of subcutaneous administration of FGLs were tested. In parallel were also tested FGLL and VEB1, another truncated form of FGLL. The peptides were administered twice, 24 and 5 hours before the first SRT, and the rats were tested 5 hour and 77 hours after the last administration"}, "[4]": {"assay": "Visual appearance of peptide diluted in water", "assay_type": "physicochemical", "settings": "100 mg/ml in water, room temperature", "procedure": "FIG. 11. Visual appearance of FGLL and FGLs. 100 mg of FGLL and FGLs, respectively were diluted in 1 ml water at room temperature for visual inspection.\nFGFL and FGFs were diluted in water at a concentration of 100 mg/ml for visual inspection (FIG. 11). […] In another experiment were 5 mg of FGLL and FGLs respectively diluted in 1 ml water or PBS at room temperature. Light microscopy pictures of the water and PBS solutions of FGLL and FGLs can be seen in FIG. 12. In FIG. 13. is a 90° light-scattering spectra of 100 mg/ml FGFL and FGLs in water showing the difference in intensity between the FGF L and the FGLs, solution."}, "[5]": {"settings": "s.c., administered twice, 77 hours after the last administration"}}, "note": "Values joined by “and” are separate entries in the source; they are usually repeats but may differ in a detail not shown here. Equal values may be shown once. “Also recorded” adds a separate entry of the source. Where no end group is shown, it is not given here."}
{"substance": "FGLs: two identical 11 amino acid peptides (VAENQQGKSKA), forming a dimer through a linker molecule (iminodiacetic acid); peptide amide (VAENQQGKSKA-NH2; not fully specified; also: dimer of two identical peptides through iminodiacetic acid linker, attachment site not given here)", "values": [{"measurement": "cumulative investigation time at the first encounter (T1) versus scopolamine and vehicle", "setting": "[1]; scopolamine 0.01 mg/kg s.c.", "result": "significantly longer T1 than rats treated with vehicle; also recorded: significant difference in the cumulative investigation time at the first encounter"}, {"measurement": "recognition ratio (RR) versus theoretical value 0.5 in scopolamine treated rats", "setting": "[1]; test 5 h after last dose, 30 minutes after scopolamine 0.01 mg/kg s.c.", "result": "Significant effects against scopolamine induced social amnesia; also recorded: RR significantly different from the theoretical value of 0.5"}, {"measurement": "spatial learning in Morris Water Maze (escape latency)", "setting": "[2]", "result": "learned significantly faster than vehicle treated ones"}, {"measurement": "duration of mnemotropic effects after administration", "setting": "[3]; s.c. administration, short-term social memory", "result": "at least 72 hours"}, {"measurement": "minimum effective dose in SRT", "setting": "[3]; s.c., administered twice (24 and 5 hours before first SRT), 5 hours post administration, intact rats", "result": "0.80 mg/kg and 0.8 mg/kg"}, {"measurement": "dose with significant social memory enhancing effect in SRT", "setting": "[3]; [5]", "result": 2.50, "unit": "mg/kg"}, {"measurement": "social memory enhancing effect in SRT", "setting": "[3]; [5]", "result": "Significant memory enhancing effects"}, {"measurement": "memory enhancing effect in SRT (recognition ratio)", "setting": "[3]; single s.c. dose 8.0 mg/kg, tested 1 hour after administration, inter-trial interval 2 hours", "result": "significant memory enhancing effect"}, {"measurement": "memory enhancing effect in SRT (recognition ratio)", "setting": "[3]; single s.c. dose 8.0 mg/kg, tested 73 hours after administration, inter-trial interval 2 hours", "result": "tendency to significance (p=0.06)"}, {"measurement": "memory enhancing effect in SRT (recognition ratio)", "setting": "[3]; single s.c. dose 2.0, 4.0 and 8.0 mg/kg, 1 hour post administration", "result": "significant memory enhancing effect"}, {"measurement": "memory enhancing effect in SRT (recognition ratio)", "setting": "[3]; single s.c. dose 4.0 and 8.0 mg/kg, 24 hours after administration", "result": "significant memory enhancing effect"}, {"measurement": "visual appearance of solution", "setting": "[4]", "result": "remained clear"}]}
